Results from patent US20190083462A1, “PREVENTION OF NSAID ENTEROPATHY WITH MICROBIOTA-DERIVED TRYPTOPHAN-METABOLITE” (THE TEXAS A&M UNIVERSITY SYSTEM, priority 2016, published 2019).

Experiments:
C57BL/6J mice [1] = experiment: Histology and small intestinal morphometric measurements; format: in vivo
Experimental: Eight- to 10-week-old specific-pathogen-free C57BL/6J mice were purchased and allowed to acclimate for 2 weeks. Mice were fed standardized laboratory rodent diet and sterile water ad libitum. […] Mice were then rehoused on the basis of treatment group assignment, with 5 animals/group-cage. To induce NSAID enteropathy, mice in group 1 were gavaged once daily with indomethacin (5 mg/kg; for 7 days; Sigma Aldrich, St. Louis, Mo.) dissolved in dimethylysulfoxide (DMSO) (Sigma Aldrich, St. Louis, Mo.) and further diluted in phosphate buffered saline (PBS). […] All mice were gavaged with equal volumes (200 μL) and equal concentrations of DMSO (0.001%).
The slides were scored as previously described for intestinal inflammation (Jia Q, Lupton J R, Smith R, Weeks B R, Callaway E, Davidson L A, Kim W, Fan Y Y, Yang P, Newman R A, et al. Reduced colitis-associated colon cancer in Fat-1 (n-3 fatty acid desaturase) transgenic mice. Cancer Research 2008; 68:3985-91). Briefly, mucosal injury was determined by the following parameters scored from 0 (no evidence) to 3 (marked): mucosal ulceration, mucosal erosion, and presence of squamified epithelium. Inflammatory changes were scored similarly based on the following parameters: lymphocytic infiltration, plasma cell infiltration, and neutrophilic infiltration. Finally, an overall evidence of injury score was used to document total injury graded from 0 (none) to 4 (marked). Morphological parameters were obtained from digitally scanned slides using SPOT vr 5.0 software. Three sets of measurements from 3 separate sections were recorded for each animal by an observer blinded to treatment group. Measurements consisted of villus height, crypt depth, and submucosal mural thickness.

[2] = test system: fecal tryptophan metabolites; experiment: Fecal tryptophan metabolites by LC-MS; format: in vivo, mice; details: for Magnitude of change in fecal concentration between Days 0 and 7: group effect ↑
Description: Eight- to 10-week-old specific-pathogen-free C57BL/6J mice were purchased and allowed to acclimate for 2 weeks. Mice were fed standardized laboratory rodent diet and sterile water ad libitum. Mice were randomly divided into the following 4 groups (n=5 mice/group): 1) NSAID (indomethacin); 2) indole; 3) NSAID+indole; and, 4) untreated controls. Mice were then rehoused on the basis of treatment group assignment, with 5 animals/group-cage. To induce NSAID enteropathy, mice in group 1 were gavaged once daily with indomethacin (5 mg/kg; for 7 days; Sigma Aldrich, St. Louis, Mo.) dissolved in dimethylysulfoxide (DMSO) (Sigma Aldrich, St. Louis, Mo.) and further diluted in phosphate buffered saline (PBS). Mice in group 2 received indole by gavage (20 mg/kg; once daily for 7 days; Sigma Aldrich, St. Louis, Mo.) dissolved in sterile water warmed to 55° C. Mice in group 3 received indole co-administered with indomethacin by gavage at the dosages described above. All mice were gavaged with equal volumes (200 μL) and equal concentrations of DMSO (0.001%).
Feces were collected daily by placing individual animals in sterile plastic cups that were RNase- and DNase-free until they passed feces. The mice were immediately returned to their home cages and the feces immediately flash frozen at −80° C. All animals were euthanized via CO2 asphyxiation on day 8 (i.e., after 7 days of treatment). The small intestine was harvested, opened longitudinally, rinsed with ice-cold PBS, and the distal ⅓ of the intestinal mucosa was scraped for tissue gene expression analysis. The remaining small intestine was fixed in 4% paraformaldehyde, Swiss-rolled, paraffin-embedded, and stained with hematoxylin and eosin. The spleen and mesenteric lymph nodes (MLN) were harvested, and immediately placed in ice cold RPMI-1640-c+10% fetal calf serum (FCS: Life Technologies, Carlsbad, Calif.), homogenized, and prepared as a single cell suspension for flow cytometric analysis as previously described (Wang N, Strugnell R, Wijburg O, Brodnicki T. Measuring bacterial load and immune responses in mice infected with Listeria monocytogenes. Journal of Visualized Experiments: JoVE 2011).
Metabolites from the fecal contents were extracted using a solvent-based method as previously described (Sridharan G V, Choi K, Klemashevich C, Wu C, Prabakaran D, Pan L B, Steinmeyer S, Mueller C, Yousofshahi M, Alaniz R C, et al. Prediction and quantification of bioactive microbiota metabolites in the mouse gut. Nature Communications 2014; 5:5492). Briefly, fecal pellets were homogenized using a homogenizer (Omni International) with equal volume of cold methanol and half volume of chloroform. The samples were then centrifuged at 10,000 g at 4° C. (Thermo Fisher Scientific) for 10 min. Supernatant was passed through a 70-μm sterile nylon cell strainer (Falcon) and 0.6 ml of ice cold water was added. The samples were vortex and centrifuged again at 10,000 g for 5 minutes. The upper phase and lower phase were collected and 400 μl of upper phase was dried to a pellet using a vacufuge (Eppendorf, Hauppauge, N.Y.), and then reconstituted in 50 μl of methanol/water (1:1, v/v). The samples were stored at −80° C. until analysis. Tryptophan metabolites in the samples were detected and quantified on a triple quadrupole linear ion trap mass spectrometer (3200 QTRAP, AB SCIEX, Foster City, Calif.) coupled to a binary pump HPLC (Prominence LC-20, Shimazu, Concord, Ontario, Canada).

C57BL/6J mice [3] = experiment: Fecal calprotectin ELISA; format: in vivo; details: feces, day 6 vs day 0; once daily gavage
Experimental: Eight- to 10-week-old specific-pathogen-free C57BL/6J mice were purchased and allowed to acclimate for 2 weeks. Mice were fed standardized laboratory rodent diet and sterile water ad libitum. […] Mice were then rehoused on the basis of treatment group assignment, with 5 animals/group-cage. To induce NSAID enteropathy, mice in group 1 were gavaged once daily with indomethacin (5 mg/kg; for 7 days; Sigma Aldrich, St. Louis, Mo.) dissolved in dimethylysulfoxide (DMSO) (Sigma Aldrich, St. Louis, Mo.) and further diluted in phosphate buffered saline (PBS). […] Sigma Aldrich, St. Louis, Mo.) dissolved in sterile water warmed to 55° C. […] All mice were gavaged with equal volumes (200 μL) and equal concentrations of DMSO (0.001%). Feces were collected daily by placing individual animals in sterile plastic cups that were RNase- and DNase-free until they passed feces. The mice were immediately returned to their home cages and the feces immediately flash frozen at -80° C. All animals were euthanized via CO2 asphyxiation on day 8 (i.e., after 7 days of treatment). […] Life Technologies, Carlsbad, Calif.), homogenized, and prepared as a single cell suspension for flow cytometric analysis as previously described (Wang […]. Measuring bacterial load and immune responses in mice infected with Listeria monocytogenes. Journal of Visualized Experiments: JoVE 2011). […]

COc1ccc2c(c1)c(CC(=O)O)c(C)n2C(=O)c1ccc(Cl)cc1 [NSAID, indomethacin]
microscopic pathology scores (C57BL/6J mice [1]; Swiss-rolled H & E stained small intestinal sections, n=5/group): significant difference from control | effect on the large intestine (C57BL/6J mice [1]; data not shown): negligible effect | ratio of villus height to crypt depth (C57BL/6J mice [1]; small intestinal mucosa): significantly decreased | Magnitude of change in fecal concentration between Days 0 and 7 ([2]; 5-Hydroxyindole): 27.2 | Magnitude of change in fecal concentration between Days 0 and 7 ([2]; 5-Hydroxytryptamine): 13.9 | Magnitude of change in fecal concentration between Days 0 and 7 ([2]; Indole): 6.7 | Magnitude of change in fecal concentration between Days 0 and 7 ([2]; Serotonin): 1.6 | Magnitude of change in fecal concentration between Days 0 and 7 ([2]; Tyramine): 6.7 | fecal indole concentrations relative to controls ([2]; feces): significantly more indole | tyramine fecal concentration by treatment group ([2]; feces): significant increase | fecal calprotectin levels (C57BL/6J mice [3]): significantly different from day 0 calprotectin
